Measured values taken from patent EP1094724B1, “USE OF A PHENOL OXIDISING ENZYME IN THE TREATMENT OF TOBACCO” (priority 1998, dated 2000).

How the values were obtained:
[1] = test system: Myceliopthora thermophila laccase (MtL); assay: MtL treatment of tobacco extract, quantitative HPLC of chlorogenic acid, rutin and scopoletin; format: biochemical; conditions: detection limit CA 2.43, R 1.55, S 0.50 µg/ml
Description: The content of phenolic compounds is analysed by HPLC according to the procedure described below: • Liquid chromatographic system: E.g. Shimadzu SCL-6B System Controller, and two LC-6A Liquid Chromatograph (pumps) or Waters model 600 E • Injector: Shimadzu SIL 6B Autoinjector or Waters 715 Ultra Wisp. UV detector: Shimadzu SPD-6A Photodiode Array UV-VIS detector or Waters Model 481 • Software: CLASS LC10 / CLASS-MXA or Maxima 820 • Column: Supelcosil™ LC-18 25 cm x 4.6 mm (Supelco, #5-8298) or µ Bondapack C198 stainless steel column, 30 cm x 4 mm i.d., 10 µm particle size. • Guard column: none or Guard-Pak from Waters packed with the same material. • Temperature: Ambient • Mobile phase flow: 1.3 ml/min • Injection volume: 20µl • Wavelength: 350 nm • Eluent: Binary gradient (linear) mixture of A: KH2PO4 (28.4 g in 2000 ml de-mineralised water) and B: methanol (please see table 1 and figure 1). The eluent is filtered through a 0.45 µm filter and degassed before use.
Prior to HPLC analysis, the samples were filtered through a 0.45 µm filter or smaller, e.g. a sterile Sartorius Minisart 0.45 µm filter (#16555) or a Millipore Millex-GS 0.22 µm (#SBGS 0 25 SB) to remove the haze/precipitate normally formed during enzyme treatment. Normally, no dilution of the extract/sample was made before HPLC analysis.
For quantitative measurements the following standards were made in the extracting solution: Chlorogenic acid: 20 mg/ml; Scopoletin: 1 mg/ml; Rutin: 0.75 mg/ml.
The mixture was intensely aerated during the reaction time.
"Raw tobacco" was extracted according to the procedure described in Example 8. […] After enzyme treatment, bentonite was added at a concentration of 1 g/L at the temperature of the extract after the laccase treatment (50°C) for 10 minutes. The slurry was clarified at a flow rate of 1 L/min using a continuous centrifuge. The enzyme treated and clarified extract was then concentrated 40 fold by means of reverse osmosis and evaporation. The concentrate was then recombined with the "tobacco residue" by spraying back the extract onto the tobacco residue, and finally dried, resulting in "recombined tobacco material".
Samples of tobacco before and after extraction and recombination with the tobacco extract was analysed for nicotine, reducing sugars, total sugars by means of an Auto Analyzer according to the method previously described, and analysed for chlorogenic acid, rutin, and scopoletin by means of HPLC according the method previously described. The tobacco extract before and after MtL and bentonite treatment was analysed for chlorogenic acid, rutin, and scopoletin by means of HPLC according the method previously described.

[2] = biological target: T1, laccase derived from Trametes villosa, TvL (Trametes villosa, UniProt Q99044); assay: Effect of laccase on tobacco constituents, UV/Vis spectra before and after treatment (Example 1); format: biochemical; conditions: 9 mM Na-acetate buffer pH 5.0; 4.8% Ethanol; 0.025 mg/ml of tobacco constituent; 0.016 mg/ml laccase; spectra 190-700 nm every 20 seconds for 5 minutes
T1 construct: purchased Novo Nordisk A/S
T1 sequence (Q99044 22-520): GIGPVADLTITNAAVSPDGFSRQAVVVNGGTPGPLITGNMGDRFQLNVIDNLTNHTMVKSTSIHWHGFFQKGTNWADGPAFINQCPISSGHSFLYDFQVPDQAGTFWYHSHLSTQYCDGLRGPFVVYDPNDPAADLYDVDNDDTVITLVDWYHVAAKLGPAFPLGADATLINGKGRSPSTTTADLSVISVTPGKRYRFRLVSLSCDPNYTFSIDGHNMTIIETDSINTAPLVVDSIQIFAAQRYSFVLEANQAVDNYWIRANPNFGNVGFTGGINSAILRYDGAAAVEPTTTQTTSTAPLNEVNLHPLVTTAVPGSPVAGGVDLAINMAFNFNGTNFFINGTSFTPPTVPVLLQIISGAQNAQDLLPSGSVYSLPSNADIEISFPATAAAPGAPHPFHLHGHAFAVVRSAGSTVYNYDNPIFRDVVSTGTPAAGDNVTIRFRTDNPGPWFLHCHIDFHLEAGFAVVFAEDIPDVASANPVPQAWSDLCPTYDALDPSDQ
Description: Tobacco constituents: Nicotine, Chlorogenic acid, Rutin and Scopoletin. Enzyme: Purified laccase derived from Trametes villosa, TvL. Apparatus: HP8452 UV/Vis diode array spectrophotometer, 1 cm quarts cuvette. Buffer: Sodium acetate (Merck)
10 mM acetate buffer was prepared from sodium acetate adjusted to pH 5.0 with sulphuric acid. Stock solution of 0.50 mg/ml in 96% ethanol was prepared of nicotine, chlorogenic acid, rutin, and scopoletin. A stock solution of 0.31 mg enzyme protein/ml of laccase in de-mineralised water was prepared. The HP diode array spectrophotometer was operated as per the manufacturer's instructions. A 1 cm quartz cuvette was used. As a blank was used 950µl buffer mixed with 50µl 96% ethanol. In a 1 cm quart cuvette was mixed 900µl 10 mM acetate buffer and 50µl of the stock solution of the compound in question. A spectrum of the "native" compound was recorded in the range 190-700 nm. 50µl of TvL stock solution was added and carefully mixed, and spectra in the range 190-700 nm were recorded every 20 seconds for 5 minutes.

[3] = 5 min, 52.0 °C, 4.1 µg/ml MtL, 3.0 kg/100 litre scale
[4] = 5 minutes, 56.2 °C, MtL, 6.0 kg/200 litre scale
[5] = 10 min, 50.3 °C, 4.1 µg/ml MtL, 3.0 kg/100 litre scale
[6] = 10 minutes, 55.8 °C, MtL, 6.0 kg/200 litre scale
[7] = 15 min, 48.8 °C, 4.1 µg/ml MtL, 3.0 kg/100 litre scale
[8] = 15 minutes, 55.2 °C, MtL, 6.0 kg/200 litre scale
[9] = 20 min, 47.4 °C, 4.1 µg/ml MtL, 3.0 kg/100 litre scale
[10] = 20 minutes, 54.5 °C, MtL, 6.0 kg/200 litre scale
[11] = 30 min, 45.0 °C, 4.1 µg/ml MtL, 3.0 kg/100 litre scale
[12] = 30 minutes, 53.5 °C, MtL, 6.0 kg/200 litre scale
[13] = 45 min, 41.9 °C, 4.1 µg/ml MtL, 3.0 kg/100 litre scale
[14] = 45 minutes, 52.2 °C, MtL, 6.0 kg/200 litre scale
[15] = 60 min, 39.1 °C, 4.1 µg/ml MtL, 3.0 kg/100 litre scale
[16] = 60 minutes, 51.0 °C, MtL, 6.0 kg/200 litre scale
[17] = Extract after MtL treatment, 4.1 µg/ml MtL, 20 minutes at 55°C, intense aeration
[18] = Extract after MtL- and bentonite treatment and separation by centrifugation, 4.1 µg/ml MtL 20 minutes at 55°C, bentonite 1 g/L 10 minutes at 50°C

| Structure (SMILES) | Content in tobacco extract during MtL treatment [1, 3] [mg/mL] | Content in tobacco extract during MtL treatment [1, 4] [mg/mL] | Content in tobacco extract during MtL treatment [1, 5] | Content in tobacco extract during MtL treatment [1, 6] [mg/mL] | Content in tobacco extract during MtL treatment [1, 7] | Content in tobacco extract during MtL treatment [1, 8] | Content in tobacco extract during MtL treatment [1, 9] | Content in tobacco extract during MtL treatment [1, 10] | Content in tobacco extract during MtL treatment [1, 11] | Content in tobacco extract during MtL treatment [1, 12] | Content in tobacco extract during MtL treatment [1, 13] | Content in tobacco extract during MtL treatment [1, 14] | Content in tobacco extract during MtL treatment [1, 15] | Content in tobacco extract during MtL treatment [1, 16] | phenolic compound content of tobacco extract [1, 17] | phenolic compound content of tobacco extract [1, 18] | spectral changes (peak position and peak relative height) [2] |
| --- | --- | --- | --- | --- | --- | --- | --- | --- | --- | --- | --- | --- | --- | --- | --- | --- | --- |
| COc1cc2ccc(=O)oc2cc1O [S, 7-Hydroxy-6-methoxy-2H-1-benzopyran-2-one] | 0.0063 | 0.0101 | 0.0027 mg/mL | 0.0090 | 0.0014 mg/mL | 0.0078 mg/mL | 0.0010 mg/mL | 0.0054 mg/mL | 0.0010 mg/mL | 0.0043 mg/mL | 0.0010 mg/mL | 0.0020 mg/mL | 0.0010 mg/mL | 0.0019 mg/mL | 0.0047 mg/mL | 0.0017 mg/mL | significant spectral changes |
| O=C(C=Cc1ccc(O)c(O)c1)OC1CC(O)(C(=O)O)CC(O)C1O (stereo not drawn) [CA, 3-[[3-(3,4-Dihydroxyphenyl)-1-oxo-2-propenyl]oxy]1,4,5-trihydroxycyclohexanecarboxylic acid] | 0.036 | 0.0166 | BDL | 0.0138 | BDL | BDL | BDL | BDL | BDL | BDL | BDL | BDL | BDL | BDL | BDL | BDL | – |
